Assay results as given in ChEMBL document CHEMBL3217636, “Design, synthesis and biological evaluation of novel benzothiazole and triazole analogs as falcipain inhibitors” (Medchemcomm, 2011).
pIC50: −log10 of the molar value. Active and inactive are the calls of the source. The calls are words filed in the database; no cut-off is given here.

Experiments:
[1] = Inhibition of Plasmodium falciparum recombinant falcipain 2
[2] = Inhibition of Plasmodium falciparum recombinant falcipain 3
[3] = system: Plasmodium falciparum; test: Antimalarial activity against Plasmodium falciparum W2; type: functional, organism-based
[4] = target: Procathepsin L (Homo sapiens, UniProt P07711); test: Inhibition of human cathepsin L1
Sequence of Procathepsin L (P07711 whole entry): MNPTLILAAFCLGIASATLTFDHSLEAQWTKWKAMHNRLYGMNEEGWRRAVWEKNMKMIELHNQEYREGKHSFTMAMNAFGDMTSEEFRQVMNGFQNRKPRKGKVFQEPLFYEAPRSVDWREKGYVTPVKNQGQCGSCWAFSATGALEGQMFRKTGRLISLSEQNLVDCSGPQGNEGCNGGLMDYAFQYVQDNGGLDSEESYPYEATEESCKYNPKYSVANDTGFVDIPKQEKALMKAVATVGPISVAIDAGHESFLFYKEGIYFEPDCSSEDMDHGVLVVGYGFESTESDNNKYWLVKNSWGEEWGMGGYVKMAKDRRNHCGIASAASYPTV

[5] = target: Cathepsin B (Homo sapiens, UniProt P07858); test: Inhibition of human cathepsin B
[6] = system: Plasmodium falciparum; test: Antimalarial activity against Plasmodium falciparum W2 at 10 uM; type: functional, organism-based
[7] = target: T1, Cathepsin K (Homo sapiens, UniProt P43235); test: Inhibition of human cathepsin K
T1 sequence (P43235 whole entry): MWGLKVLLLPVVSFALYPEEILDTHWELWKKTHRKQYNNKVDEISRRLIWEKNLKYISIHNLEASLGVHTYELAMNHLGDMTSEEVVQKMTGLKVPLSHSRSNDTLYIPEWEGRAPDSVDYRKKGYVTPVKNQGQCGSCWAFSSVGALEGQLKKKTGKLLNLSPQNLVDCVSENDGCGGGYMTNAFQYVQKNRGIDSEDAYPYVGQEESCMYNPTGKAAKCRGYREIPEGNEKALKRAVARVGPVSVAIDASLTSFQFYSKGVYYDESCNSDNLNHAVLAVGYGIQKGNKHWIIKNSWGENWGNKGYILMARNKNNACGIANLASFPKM

| SMILES | pIC50 [1] | further results |
| --- | --- | --- |
| Cc1cc(NC(=O)Cn2cc(-c3ccc(Oc4ccccc4)cc3)nn2)no1 | 4.70 | pIC50 [2]: 4.40 |
| C[C@@H]1CC[C@H]2[C@@H](C)C(=O)O[C@@H]3O[C@@]4(C)CC[C@@H]1[C@]32OO4 [ARTEMISININ] |  | pIC50 [3]: 7.92 |
| Cc1ccc(NC(=O)CSc2nc3ccc(NS(=O)(=O)c4ccc(OC(F)(F)F)cc4)cc3s2)cc1 | 4.77 |  |
| CCOC(=O)CSc1nc2ccc(NS(=O)(=O)c3ccc4ccncc4c3)cc2s1 | 4.50 |  |
| COc1ccc2cc(-c3cn(CC(=O)Nc4cc(C)on4)nn3)ccc2c1 | 4.42 |  |
| CC(C)[C@@H](N)C(=O)Nc1ccc2nc(SCC(=O)c3ccc4ccccc4c3)sc2c1 | 4.91 | pIC50 [4]: 5.23; pIC50 [5]: < 4.30; pIC50 [3]: 5.33; pIC50 [2]: 4.86; pIC50 [7]: 4.84 |
| Cc1ccc(NC(=O)CSc2nc3ccc(NS(=O)(=O)CC(F)(F)F)cc3s2)cc1 | 4.61 |  |
| CC(=O)Nc1ccc2nc(SCC(=O)Nc3ccc(C)cc3)sc2c1 | 4.86 |  |
| Cc1cccc(-c2cn(CC(=O)Nc3cc(C)on3)nn2)c1 | < 4.30 |  |
| COc1ccc(C(=O)Nc2ccc3nc(SCC(=O)c4ccccc4)sc3c2)cc1 | 4.99 | pIC50 [4]: 4.50; pIC50 [5]: 4.75; pIC50 [3]: < 5.00; pIC50 [2]: < 4.30; pIC50 [7]: 5.21 |
| O=C(CSc1nc2ccc(NS(=O)(=O)c3ccc(OC(F)(F)F)cc3)cc2s1)c1ccccc1 | 4.45 |  |
| Cc1cc(NC(=O)Cn2cc(-c3cccc(O)c3)nn2)no1 | < 4.30 |  |
| CCOC(=O)CSc1nc2ccc(N)cc2s1 | < 4.30 |  |
| Cc1ccc(NC(=O)CSc2nc3ccc(NC(=O)[C@H](N)c4ccccc4)cc3s2)cc1 | < 4.30 |  |
| CCOC(=O)CSc1nc2ccc(NS(=O)(=O)c3ccc(F)cc3)cc2s1 | < 4.30 |  |
| Cc1cc(NC(=O)Cn2cc(-c3cccnc3)nn2)no1 | < 4.30 |  |
| CCCCCc1ccc(-c2cn(CC(=O)Nc3cc(C)on3)nn2)cc1 | 4.41 |  |
| Cc1ccc(NC(=O)CSc2nc3ccc(NC(=O)[C@H](N)C(C)C)cc3s2)cc1 | < 4.30 |  |

Now from value to compound, other results behind:

| pIC50 [1] | SMILES | further results |
| --- | --- | --- |
| 4.88 | CC(=O)Nc1ccc2nc(SCC(=O)c3ccc4ccccc4c3)sc2c1 |  |
| < 4.30 | O=C(CSc1nc2ccc(NS(=O)(=O)c3ccc(OC(F)(F)F)cc3)cc2s1)c1ccc2ccccc2c1 |  |
| 4.89 | N[C@@H](C(=O)Nc1ccc2nc(SCC(=O)c3ccc4ccccc4c3)sc2c1)c1ccccc1 | pIC50 [4]: 5.36; pIC50 [5]: < 4.30; pIC50 [2]: 4.83; Activity [6]: inactive; pIC50 [7]: 5.25 |
| < 4.30 | Cc1cc(NC(=O)Cn2cc(COc3ccccc3)nn2)no1 |  |
| 4.86 | Cc1ccc(NC(=O)CSc2nc3ccc(NS(=O)(=O)c4ccc5ccncc5c4)cc3s2)cc1 |  |
| < 4.30 | Cc1cc(NC(=O)Cn2cc(-c3ccc(F)cc3)nn2)no1 |  |
| < 4.30 | CCOC(=O)CSc1nc2ccc(NS(=O)(=O)CC(F)(F)F)cc2s1 |  |
| < 4.30 | CCOC(=O)CSc1nc2ccc(NS(=O)(=O)c3ccccc3[N+](=O)[O-])cc2s1 |  |
| 7.52 | CC(C)C[C@H](NC(=O)[C@H]1O[C@@H]1C(=O)O)C(=O)NCCCCN=C(N)N [E-64] | pIC50 [4]: 7.80; pIC50 [5]: 8.30; pIC50 [7]: 8.40 |
| < 4.30 | Cc1cc(NC(=O)Cn2cc(CCCCl)nn2)no1 |  |
| < 4.30 | Nc1ccc2nc(SCC(=O)c3ccccc3)sc2c1 |  |
| < 4.30 | O=C(CSc1nc2ccc(NS(=O)(=O)c3ccc4ccncc4c3)cc2s1)c1ccc2ccccc2c1 | pIC50 [3]: 5.68 |
| < 4.30 | Cc1cc(NC(=O)Cn2cc(-c3ccc(C=O)cc3)nn2)no1 |  |
| 5.66 | Cc1cc(NC(=O)Cn2nnc(-c3ccc(NC(=O)c4ccc(F)cc4)cc3)n2)no1 | pIC50 [4]: 4.61; pIC50 [5]: 4.43; pIC50 [3]: < 5.00; pIC50 [2]: 5.31; pIC50 [7]: 5.42 |
| < 4.30 | Nc1ccc2nc(SCC(=O)c3ccc4ccccc4c3)sc2c1 |  |
| < 4.30 | Cc1cc(NC(=O)Cn2cc(-c3ccccc3)nn2)no1 |  |
| 4.36 | O=C(CSc1nc2ccc(NS(=O)(=O)c3ccc(F)cc3)cc2s1)c1ccc2ccccc2c1 |  |
| < 4.30 | Cc1cc(NC(=O)Cn2cc(-c3cccc4ccccc34)nn2)no1 |  |
| 4.78 | Cc1ccc(NC(=O)CSc2nc3ccc(NS(=O)(=O)c4ccc(F)cc4)cc3s2)cc1 |  |
| < 4.30 | Cc1ccc(NC(=O)CSc2nc3ccc(N)cc3s2)cc1 |  |
| 4.95 | O=C(CSc1nc2ccc(NS(=O)(=O)c3ccccc3[N+](=O)[O-])cc2s1)c1ccccc1 |  |
